# “And” between values parts separate entries of the source, which are not always exact repeats. Equal values may be shown once.
# What was measured:
# Human mTOR (FLAG-TOR) = Human mTOR (FLAG-TOR) (Homo sapiens, UniProt P42345); test: mTOR kinase assay (DELFIA format, purified enzyme); assay type: biochemical; conditions: read-out: IC50 mTOR
# [1] = tested on: human prostate LNCap tumor cell line; test: In vitro cell culture growth assay (MTS), LNCap; conditions: Homo sapiens, LNCaP, 72 h, read-out: IC50 LNCap
# PI3K-γ = PI3K-γ (Homo sapiens, UniProt P48736); test: PI3K-gamma fluorescence polarization assay; conditions: read-out: IC50 PI3Kγ
# PI3K-α = PI3K-α (Homo sapiens, UniProt P42336); test: PI3K-alpha fluorescence polarization assay; conditions: read-out: IC50 PI3Kα
# Chain of PI3K-α (P42336 whole entry, species assumed): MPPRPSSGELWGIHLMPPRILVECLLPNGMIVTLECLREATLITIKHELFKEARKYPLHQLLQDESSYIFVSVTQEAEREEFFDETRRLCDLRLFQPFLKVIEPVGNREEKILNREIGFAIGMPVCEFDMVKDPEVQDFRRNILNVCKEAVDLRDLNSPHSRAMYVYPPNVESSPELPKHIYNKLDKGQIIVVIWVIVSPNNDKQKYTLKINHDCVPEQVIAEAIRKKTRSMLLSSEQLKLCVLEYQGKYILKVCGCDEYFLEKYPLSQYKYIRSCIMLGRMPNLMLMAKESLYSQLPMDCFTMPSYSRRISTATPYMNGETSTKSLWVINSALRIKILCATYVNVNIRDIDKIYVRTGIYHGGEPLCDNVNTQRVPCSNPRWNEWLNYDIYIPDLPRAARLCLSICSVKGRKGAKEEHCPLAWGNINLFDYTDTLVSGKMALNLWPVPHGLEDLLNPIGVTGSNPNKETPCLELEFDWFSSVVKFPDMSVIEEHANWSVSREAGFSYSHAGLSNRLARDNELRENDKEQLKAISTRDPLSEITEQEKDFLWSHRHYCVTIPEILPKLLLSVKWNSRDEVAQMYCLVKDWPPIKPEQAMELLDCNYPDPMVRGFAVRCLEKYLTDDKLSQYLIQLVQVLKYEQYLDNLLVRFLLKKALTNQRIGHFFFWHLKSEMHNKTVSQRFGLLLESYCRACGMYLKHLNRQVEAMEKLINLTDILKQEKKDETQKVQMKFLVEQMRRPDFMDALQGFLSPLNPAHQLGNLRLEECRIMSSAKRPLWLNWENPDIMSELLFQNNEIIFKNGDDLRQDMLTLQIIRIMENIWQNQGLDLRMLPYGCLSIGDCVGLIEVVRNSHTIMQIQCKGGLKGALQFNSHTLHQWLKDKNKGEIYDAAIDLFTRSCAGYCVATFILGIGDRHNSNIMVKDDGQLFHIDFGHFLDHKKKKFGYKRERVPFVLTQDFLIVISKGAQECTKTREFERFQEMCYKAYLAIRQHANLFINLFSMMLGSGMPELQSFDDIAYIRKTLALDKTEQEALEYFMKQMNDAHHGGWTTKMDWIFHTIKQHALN
# Chain of PI3K-α (P27986 whole entry partner, species assumed): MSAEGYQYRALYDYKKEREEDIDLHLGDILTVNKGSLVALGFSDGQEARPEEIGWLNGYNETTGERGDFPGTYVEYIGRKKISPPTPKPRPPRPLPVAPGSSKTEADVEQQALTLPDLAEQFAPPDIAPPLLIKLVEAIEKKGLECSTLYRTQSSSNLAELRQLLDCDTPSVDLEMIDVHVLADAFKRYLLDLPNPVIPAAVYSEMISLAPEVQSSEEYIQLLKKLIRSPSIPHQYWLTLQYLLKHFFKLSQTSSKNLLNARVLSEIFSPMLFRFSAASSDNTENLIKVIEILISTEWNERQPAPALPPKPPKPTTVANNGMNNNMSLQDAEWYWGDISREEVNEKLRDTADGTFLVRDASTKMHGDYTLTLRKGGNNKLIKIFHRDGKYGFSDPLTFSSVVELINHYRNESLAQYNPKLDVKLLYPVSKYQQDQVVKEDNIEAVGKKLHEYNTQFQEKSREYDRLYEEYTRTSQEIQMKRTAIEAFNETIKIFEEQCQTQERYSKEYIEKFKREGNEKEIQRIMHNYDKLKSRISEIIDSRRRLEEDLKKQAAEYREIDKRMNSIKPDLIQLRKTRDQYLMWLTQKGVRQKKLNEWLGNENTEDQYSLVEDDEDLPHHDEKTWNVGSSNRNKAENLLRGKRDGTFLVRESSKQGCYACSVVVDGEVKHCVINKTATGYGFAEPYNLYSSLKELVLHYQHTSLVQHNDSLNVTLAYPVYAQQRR
# Chain of Human mTOR (FLAG-TOR) (P42345 1360-2549 limits assumed): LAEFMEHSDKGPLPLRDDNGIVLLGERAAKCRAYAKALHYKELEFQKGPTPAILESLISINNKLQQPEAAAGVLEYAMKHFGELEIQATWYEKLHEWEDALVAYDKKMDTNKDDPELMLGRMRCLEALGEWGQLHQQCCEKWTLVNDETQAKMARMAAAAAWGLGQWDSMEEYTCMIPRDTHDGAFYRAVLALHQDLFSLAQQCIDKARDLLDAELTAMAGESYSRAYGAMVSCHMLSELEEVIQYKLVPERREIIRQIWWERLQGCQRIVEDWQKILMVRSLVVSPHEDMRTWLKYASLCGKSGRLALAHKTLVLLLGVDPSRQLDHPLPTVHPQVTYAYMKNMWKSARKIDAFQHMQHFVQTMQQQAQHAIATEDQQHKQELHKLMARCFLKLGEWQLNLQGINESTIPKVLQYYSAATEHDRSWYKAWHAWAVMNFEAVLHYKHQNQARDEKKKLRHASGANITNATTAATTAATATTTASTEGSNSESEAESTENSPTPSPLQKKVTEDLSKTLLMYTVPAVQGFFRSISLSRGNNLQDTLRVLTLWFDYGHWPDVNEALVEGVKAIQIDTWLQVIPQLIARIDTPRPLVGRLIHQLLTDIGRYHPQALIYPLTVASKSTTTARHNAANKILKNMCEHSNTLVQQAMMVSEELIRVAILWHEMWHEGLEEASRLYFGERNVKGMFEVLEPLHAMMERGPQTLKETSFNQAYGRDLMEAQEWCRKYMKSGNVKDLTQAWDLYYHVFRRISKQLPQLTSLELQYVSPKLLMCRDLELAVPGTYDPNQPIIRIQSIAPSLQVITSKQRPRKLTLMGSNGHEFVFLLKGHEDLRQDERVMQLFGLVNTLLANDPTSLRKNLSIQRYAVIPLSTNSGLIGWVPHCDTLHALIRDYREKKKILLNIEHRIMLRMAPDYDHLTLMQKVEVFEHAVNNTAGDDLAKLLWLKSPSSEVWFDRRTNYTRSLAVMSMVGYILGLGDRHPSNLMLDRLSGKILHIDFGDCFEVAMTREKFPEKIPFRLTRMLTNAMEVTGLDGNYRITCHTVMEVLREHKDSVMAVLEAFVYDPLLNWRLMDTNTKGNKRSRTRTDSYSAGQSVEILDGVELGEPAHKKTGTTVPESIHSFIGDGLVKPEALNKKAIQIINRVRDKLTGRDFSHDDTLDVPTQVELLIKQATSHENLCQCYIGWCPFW
# Chain of PI3K-γ (P48736 whole entry, species assumed): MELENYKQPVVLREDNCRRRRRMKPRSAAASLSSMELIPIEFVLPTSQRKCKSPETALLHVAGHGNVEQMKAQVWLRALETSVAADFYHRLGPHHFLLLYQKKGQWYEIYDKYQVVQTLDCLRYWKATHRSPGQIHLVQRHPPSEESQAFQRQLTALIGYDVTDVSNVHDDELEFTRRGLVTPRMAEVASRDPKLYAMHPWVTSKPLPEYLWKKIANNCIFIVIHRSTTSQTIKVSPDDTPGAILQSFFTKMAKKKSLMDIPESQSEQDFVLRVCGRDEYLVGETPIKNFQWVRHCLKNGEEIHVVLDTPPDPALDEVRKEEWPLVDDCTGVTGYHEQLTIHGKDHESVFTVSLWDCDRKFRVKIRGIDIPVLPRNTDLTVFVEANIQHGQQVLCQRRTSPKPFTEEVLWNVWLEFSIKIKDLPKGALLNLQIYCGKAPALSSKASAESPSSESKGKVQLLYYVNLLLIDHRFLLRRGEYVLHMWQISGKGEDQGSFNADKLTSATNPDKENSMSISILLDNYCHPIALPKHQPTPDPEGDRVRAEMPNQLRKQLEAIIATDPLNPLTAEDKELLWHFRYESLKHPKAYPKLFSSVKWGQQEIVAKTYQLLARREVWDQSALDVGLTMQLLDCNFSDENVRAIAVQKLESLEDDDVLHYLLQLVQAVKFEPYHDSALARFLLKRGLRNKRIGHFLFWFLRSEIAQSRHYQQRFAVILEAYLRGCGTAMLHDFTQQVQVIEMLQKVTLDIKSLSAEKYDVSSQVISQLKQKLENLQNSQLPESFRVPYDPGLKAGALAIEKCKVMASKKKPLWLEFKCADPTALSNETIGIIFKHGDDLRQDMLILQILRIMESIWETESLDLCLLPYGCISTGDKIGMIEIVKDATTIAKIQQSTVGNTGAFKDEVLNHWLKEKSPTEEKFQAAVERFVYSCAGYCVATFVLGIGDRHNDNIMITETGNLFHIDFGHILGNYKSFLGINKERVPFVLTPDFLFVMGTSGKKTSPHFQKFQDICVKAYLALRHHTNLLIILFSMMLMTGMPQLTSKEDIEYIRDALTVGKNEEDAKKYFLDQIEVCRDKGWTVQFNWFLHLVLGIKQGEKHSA
IC50 (Human mTOR (FLAG-TOR)),IC50 [1],IC50 (PI3K-γ),IC50 (PI3K-α),Compound
5 nM and 5.8 nM,300 nM,7900 nM,1100 nM,"CN1CCN(c2ccc(Nc3nc(-c4ccc(NC(=O)NCCF)cc4)nc(N4CC5CCC(C4)O5)n3)cc2)CC1 [Example 315, 1-(2-fluoroethyl)-3-{4-[4-{[4-(4-methylpiperazin-1-yl)phenyl]amino}-6-(8-oxa-3-azabicyclo[3.2.1]oct-3-yl)-1,3,5-triazin-2-yl]phenyl}urea]"
1.6 nM,5800 nM,8000 nM,531 nM,"O=C(Nc1ccc(-c2nc(OCC3CCCNC3)nc(N3CC4CCC(C3)O4)n2)cc1)Nc1cccnc1 (stereo not shown) [Example 180, 1-{4-[4-(8-oxa-3-azabicyclo[3.2.1]oct-3-yl)-6-(piperidin-3-ylmethoxy)-1,3,5-triazin-2-yl]phenyl}-3-pyridin-3-ylurea]"
12.2 nM and 12 nM,580 nM,6190 nM,830 nM,"O=C(Nc1ccc(-c2nc(Nc3ccc(N4CCNCC4)cc3)nc(N3CC4CCC(C3)O4)n2)cc1)NC1CC1 [Example 326, 1-cyclopropyl-3-(4-{4-(8-oxa-3-azabicyclo[3.2.1]oct-3-yl)-6-[(4-piperazin-1-ylphenyl)amino]-1,3,5-triazin-2-yl}phenyl)urea]"
79 nM,1200 nM,1550 nM,262 nM,"CN(C)CCNC1CCN(c2nc(-c3ccc(NC(=O)Nc4ccncc4)cc3)nc(N3CC4CCC(C3)O4)n2)CC1 [Example 120, 1-{4-[4-(4-{[2-(dimethylamino)ethyl]amino}piperidin-1-yl)-6-(8-oxa-3-azabicyclo[3.2.1]oct-3-yl)-1,3,5-triazin-2-yl]phenyl}-3-pyridin-4-ylurea]"
7 nM,49 nM,1290 nM,300 nM,"CC(C)Oc1nc(-c2ccc(NC(=O)Nc3ccncc3)cc2)nc(N2CC3CCC(C2)O3)n1 [Example 158, 1-{4-[4-isopropoxy-6-(8-oxa-3-azabicyclo[3.2.1]oct-3-yl)-1,3,5-triazin-2-yl]phenyl}-3-pyridin-4-ylurea]"
6.3 nM,950 nM,1320 nM,780 nM,"CNc1nc(-c2ccc(NC(=O)Nc3cccnc3)cc2)nc(N2CC3CCC(C2)O3)n1 [Example 190, 1-{4-[4-(methylamino)-6-(8-oxa-3-azabicyclo[3.2.1]oct-3-yl)-1,3,5-triazin-2-yl]phenyl}-3-pyridin-3-ylurea]"

Compound,IC50 (Human mTOR (FLAG-TOR)),IC50 [1],IC50 (PI3K-γ),IC50 (PI3K-α)
"C[C@@H]1COCCN1c1nc(-c2ccc(NC(=O)Nc3ccc(N4CCN(C)CC4)nc3)cc2)nc(N2C3CCC2COC3)n1 [Example 446, 1-(4-(4-(3-oxa-8-azabicyclo[3.2.1]octan-8-yl)-6-((R)-3-methylmorpholino)-1,3,5-triazin-2-yl)phenyl)-3-(6-(4-methylpiperazin-1-yl)pyridin-3-yl)urea]",0.82 nM,15 nM,4010 nM,835 nM
"CN1CCN(c2ccc(NC(=O)Nc3ccc(-c4nc(N5CC[S+]([O-])CC5)nc(N5C6CCC5COC6)n4)cc3)cc2)CC1 [Example 426, 1-(4-(4-(3-oxa-8-azabicyclo[3.2.1]octan-8-yl)-6-sulfoxymorpholino-1,3,5-triazin-2-yl)phenyl)-3-(4-(4-methylpiperazin-1-yl)phenyl)urea]",53 nM,700 nM,8480 nM,1220 nM
"C[C@@H]1COCCN1c1nc(-c2ccc(NC(=O)Nc3ccncc3)cc2)nc(N2C3CCC2COC3)n1 [Example 416, 1-(4-(4-(3-oxa-8-azabicyclo[3.2.1]octan-8-yl)-6-((R)-3-methylmorpholino)-1,3,5-triazin-2-yl)phenyl)-3-(pyridin-4-yl)urea]",0.55 nM,12 nM,2500 nM,446 nM
"O=C(Nc1ccncc1)Nc1ccc(-c2nc(N3CCSCC3)nc(N3C4CCC3COC4)n2)cc1 [Example 393, 1-(4-(4-(3-oxa-8-azabicyclo[3.2.1]octan-8-yl)-6-thiomorpholino-1,3,5-triazin-2-yl)phenyl)-3-(pyridin-4-yl)urea]",3.6 nM,580 nM,1540 nM,444 nM

# Source: patent publication US20090304692A1, “TRIAZINE COMPOUNDS AS PI3 KINASE AND MTOR INHIBITORS” (Wyeth, priority 2008, published 2009)
